Reference: ChEMBL document CHEMBL1201862, “PubChem BioAssay data set” (2004)
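Growth conditions: 96-well plates. Treatment: test compound, 48 hours, 5 concentrations. Analysis: linear interpolation between bracketing concentrations; unreached endpoints set to highest concentration. GI50 marks 50% less growth.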 Active and inactive are the calls of the source. Cut-off read from the data, not from the text of the source: active = GI50 up to about 1.1 µM and inactive = higher.

Tests used:
Experiment in all cases: DTP human tumour cell line panel, 48 h
786-0 = test system: 786-0
CAKI-1 = test system: CAKI-1
CCRF-CEM = test system: CCRF-CEM
HOP-92 = test system: HOP-92
IGROV-1 = test system: IGROV-1
KM12 = test system: KM12
M14 = test system: M14
NCI-H226 = test system: NCI-H226
NCI-H23 = test system: NCI-H23
OVCAR-8 = test system: OVCAR-8
SF-295 = test system: SF-295
SK-OV-3 = test system: SK-OV-3
SNB-19 = test system: SNB-19
SNB-75 = test system: SNB-75
SR = test system: SR
TK-10 = test system: TK-10
U-251 = test system: U-251
UACC-62 = test system: UACC-62
HCC 2998 = test system: HCC 2998
HL-60 = test system: HL-60

Measured: GI50

N#Cc1c(Nc2ccc(F)cc2)[n+]([O-])c2ccc(Cl)cc2[n+]1[O-]
inactive: 786-0 3.34 µM | CAKI-1 3.18 µM | CCRF-CEM 2.62 µM | HOP-92 2.14 µM | IGROV-1 1.33 µM | KM12 5.57 µM | M14 3.36 µM | NCI-H226 4.51 µM | NCI-H23 3.84 µM | OVCAR-8 3.55 µM | SF-295 1.85 µM | SK-OV-3 4.06 µM | SNB-19 6 µM | SNB-75 17.7 µM | SR 1.57 µM | TK-10 19.9 µM | U-251 2.38 µM | UACC-62 3.66 µM

CCOC(=O)c1nc2ccccc2n(CC)c1=O
inactive: CAKI-1 > 100 µM | CCRF-CEM > 100 µM | HCC 2998 > 100 µM | HL-60 > 100 µM | HOP-92 > 100 µM | IGROV-1 > 100 µM | KM12 > 100 µM | M14 > 100 µM | NCI-H226 > 100 µM | NCI-H23 > 100 µM | OVCAR-8 > 100 µM | SF-295 > 100 µM | SK-OV-3 > 100 µM | SNB-19 > 100 µM | SR > 100 µM | TK-10 > 100 µM | U-251 > 100 µM | UACC-62 > 100 µM

CCN(CC)c1ccc2cc(C(=O)Nc3nc(C45CC6CC(CC(C6)C4)C5)cs3)c(=O)oc2c1
inactive: 786-0 > 100 µM | CAKI-1 > 100 µM | CCRF-CEM > 100 µM | HCC 2998 > 100 µM | HL-60 > 100 µM | HOP-92 > 100 µM | IGROV-1 > 100 µM | KM12 > 100 µM | NCI-H226 > 100 µM | NCI-H23 > 100 µM | OVCAR-8 > 100 µM | SF-295 > 100 µM | SNB-19 > 100 µM | SR > 100 µM | TK-10 > 100 µM | U-251 > 100 µM

CC(=O)OCCCCn1cnc2c(Cl)nc(Nc3ccccc3)nc21
inactive: 786-0 > 100 µM | CAKI-1 18.7 µM | CCRF-CEM > 100 µM | HCC 2998 42.9 µM | HL-60 > 100 µM | IGROV-1 > 100 µM | KM12 > 100 µM | NCI-H226 > 100 µM | NCI-H23 54.7 µM | OVCAR-8 > 100 µM | SF-295 > 100 µM | SR > 100 µM | TK-10 > 100 µM | U-251 > 100 µM | UACC-62 > 100 µM

CCOC(=O)c1nc2ccc(C(F)(F)F)cc2nc1NCc1ccc(Cl)c(Cl)c1
inactive: 786-0 25.1 µM | CAKI-1 24.9 µM | CCRF-CEM > 100 µM | HL-60 41.5 µM | HOP-92 14.6 µM | IGROV-1 20.7 µM | KM12 28.7 µM | M14 36.9 µM | NCI-H226 30.8 µM | NCI-H23 40 µM | OVCAR-8 37.1 µM | SF-295 29.8 µM | SK-OV-3 35.2 µM | SNB-19 28.3 µM | SNB-75 14 µM | SR 37.9 µM | TK-10 34.2 µM | U-251 58.6 µM | UACC-62 30 µM

CCOC(=O)c1c(-c2ccccc2)c(C(OC(c2ccccc2)c2c(-c3ccccc3)c(C(=O)OCC)n3ccccc23)c2ccccc2)c2ccccn12 (configuration not stated)
inactive: 786-0 > 100 µM | CAKI-1 > 100 µM | CCRF-CEM > 100 µM | HCC 2998 > 100 µM | HL-60 > 100 µM | IGROV-1 > 100 µM | KM12 > 100 µM | M14 > 100 µM | NCI-H226 > 100 µM | NCI-H23 > 100 µM | OVCAR-8 > 100 µM | SF-295 > 100 µM | SK-OV-3 > 100 µM | SNB-19 > 100 µM | SNB-75 > 100 µM | SR > 100 µM | TK-10 > 100 µM | UACC-62 > 100 µM

CCOC(=O)c1ccc(C(=O)C(C(C)=O)C(=O)OC(C)(C)C)[nH]1 (configuration not stated)
inactive: 786-0 > 100 µM | CAKI-1 > 100 µM | HCC 2998 > 100 µM | HL-60 > 100 µM | IGROV-1 > 100 µM | KM12 > 100 µM | M14 > 100 µM | NCI-H226 > 100 µM | NCI-H23 > 100 µM | OVCAR-8 > 100 µM | SF-295 > 100 µM | SK-OV-3 > 100 µM | SNB-19 > 100 µM | SNB-75 > 100 µM | SR > 100 µM | U-251 > 100 µM | UACC-62 > 100 µM

CC(=O)c1nccc2c1c(C)nc1ccccc12
inactive: CAKI-1 30.3 µM | CCRF-CEM 16.4 µM | HL-60 67.8 µM | HOP-92 25.8 µM | IGROV-1 70 µM | KM12 38.7 µM | M14 > 100 µM | NCI-H226 10.4 µM | NCI-H23 79.8 µM | OVCAR-8 72.6 µM | SF-295 53.7 µM | SK-OV-3 > 100 µM | SNB-19 > 100 µM | SNB-75 > 100 µM | SR 26.4 µM | TK-10 > 100 µM | U-251 > 100 µM | UACC-62 53.7 µM

Cc1ccc(NC(=O)/C(=N\Nc2ccc([N+](=O)[O-])cc2[N+](=O)[O-])C2C(=O)NC(=O)NC2=O)cc1
inactive: 786-0 > 100 µM | CAKI-1 > 100 µM | CCRF-CEM 31.8 µM | HL-60 35.7 µM | HOP-92 > 100 µM | IGROV-1 43.2 µM | KM12 53.2 µM | M14 89.7 µM | NCI-H226 > 100 µM | NCI-H23 > 100 µM | OVCAR-8 55.7 µM | SF-295 46.1 µM | SK-OV-3 > 100 µM | SNB-19 > 100 µM | SNB-75 26.7 µM | SR > 100 µM | TK-10 > 100 µM | U-251 38.6 µM | UACC-62 7.13 µM

O=C(c1cccs1)N(C(=S)N1CCN(c2ccccc2)CC1)c1ccccc1
inactive: 786-0 > 100 µM | CAKI-1 > 100 µM | CCRF-CEM > 100 µM | HL-60 > 100 µM | HOP-92 > 100 µM | IGROV-1 > 100 µM | KM12 > 100 µM | M14 > 100 µM | NCI-H226 47.6 µM | NCI-H23 > 100 µM | OVCAR-8 > 100 µM | SF-295 > 100 µM | SK-OV-3 > 100 µM | SNB-19 > 100 µM | SNB-75 > 100 µM | SR > 100 µM | TK-10 > 100 µM | U-251 > 100 µM | UACC-62 > 100 µM

CN(COC(=O)C(C)(C)C)c1nc(N(C)COC(=O)C(C)(C)C)nc(N(C)COC(=O)C(C)(C)C)n1
inactive: 786-0 28.6 µM | CAKI-1 36.7 µM | CCRF-CEM 16.7 µM | HCC 2998 34.3 µM | HL-60 29.2 µM | IGROV-1 > 100 µM | KM12 > 100 µM | M14 19 µM | NCI-H226 > 100 µM | NCI-H23 > 100 µM | OVCAR-8 > 10 µM | SF-295 94.6 µM | SK-OV-3 > 100 µM | SNB-19 > 100 µM | SNB-75 50.2 µM | SR 29.1 µM | TK-10 > 100 µM | UACC-62 > 10 µM

CCOC(=O)C1=C(c2ccccc2)N(C)c2ccccc2S1
inactive: 786-0 31.8 µM | CAKI-1 31 µM | CCRF-CEM 31 µM | HL-60 37.4 µM | HOP-92 44.5 µM | IGROV-1 32.4 µM | M14 34.5 µM | NCI-H226 21.7 µM | NCI-H23 20.1 µM | OVCAR-8 33.6 µM | SF-295 35.8 µM | SK-OV-3 92.5 µM | SNB-19 69.5 µM | SNB-75 38.6 µM | SR 31.6 µM | TK-10 46.5 µM | U-251 19.8 µM | UACC-62 19 µM

Cc1ccc([N+](=O)[O-])cc1S(=O)(=O)Nc1ccc(C2=NN(c3ccc([N+](=O)[O-])cc3[N+](=O)[O-])C(c3ccccc3)C2)cc1 (configuration not stated)
inactive: 786-0 15.4 µM | CAKI-1 22.8 µM | CCRF-CEM 22.1 µM | HL-60 20.3 µM | HOP-92 14.8 µM | IGROV-1 16.6 µM | KM12 18.3 µM | M14 17.4 µM | NCI-H226 17.4 µM | NCI-H23 14.6 µM | OVCAR-8 17 µM | SF-295 14.3 µM | SK-OV-3 21 µM | SNB-19 17.1 µM | SNB-75 22.5 µM | SR 22.4 µM | TK-10 26.4 µM | U-251 12.7 µM

COc1ccc(-c2c3c([nH]c(=S)c2C#N)CC(C)(C)CC3=O)cc1
inactive: 786-0 > 100 µM | CAKI-1 > 100 µM | CCRF-CEM 56.2 µM | HCC 2998 > 100 µM | HL-60 > 100 µM | HOP-92 > 100 µM | IGROV-1 > 100 µM | KM12 > 100 µM | M14 > 100 µM | NCI-H226 > 100 µM | NCI-H23 > 100 µM | OVCAR-8 > 100 µM | SF-295 > 100 µM | SNB-19 > 100 µM | SR > 100 µM | TK-10 > 100 µM | U-251 > 100 µM | UACC-62 > 100 µM

O=C1c2ccccc2C(=O)c2cc(/N=N/c3c(O)ccc4ccccc34)ccc21
inactive: 786-0 > 100 µM | CAKI-1 > 100 µM | CCRF-CEM > 100 µM | HOP-92 > 100 µM | IGROV-1 > 100 µM | KM12 > 100 µM | M14 > 100 µM | NCI-H226 > 100 µM | NCI-H23 > 100 µM | OVCAR-8 > 100 µM | SF-295 > 100 µM | SK-OV-3 > 100 µM | SNB-19 > 100 µM | SNB-75 > 100 µM | SR > 100 µM | TK-10 > 100 µM | U-251 56.4 µM | UACC-62 > 100 µM
